# Source: article PMC2891903 (The Journal of nutritional biochemistry, 2010)
# Target: T1, vitamin D receptor (VDR) (Homo sapiens, UniProt P11473)
# T1 sequence (P11473 1-427): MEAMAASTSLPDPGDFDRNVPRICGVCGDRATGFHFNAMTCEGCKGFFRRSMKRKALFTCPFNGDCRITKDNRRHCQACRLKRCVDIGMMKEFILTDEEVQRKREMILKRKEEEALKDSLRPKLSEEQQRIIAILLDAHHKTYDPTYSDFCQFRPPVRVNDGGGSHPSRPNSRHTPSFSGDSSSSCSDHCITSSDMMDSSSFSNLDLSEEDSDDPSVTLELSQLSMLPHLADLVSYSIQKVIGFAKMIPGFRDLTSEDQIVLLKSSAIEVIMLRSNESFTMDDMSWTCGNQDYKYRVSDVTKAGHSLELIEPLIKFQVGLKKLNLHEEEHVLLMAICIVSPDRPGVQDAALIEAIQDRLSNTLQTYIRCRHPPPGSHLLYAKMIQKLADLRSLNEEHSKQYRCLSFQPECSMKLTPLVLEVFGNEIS
# T1 sequence (P19793 1-462 partner): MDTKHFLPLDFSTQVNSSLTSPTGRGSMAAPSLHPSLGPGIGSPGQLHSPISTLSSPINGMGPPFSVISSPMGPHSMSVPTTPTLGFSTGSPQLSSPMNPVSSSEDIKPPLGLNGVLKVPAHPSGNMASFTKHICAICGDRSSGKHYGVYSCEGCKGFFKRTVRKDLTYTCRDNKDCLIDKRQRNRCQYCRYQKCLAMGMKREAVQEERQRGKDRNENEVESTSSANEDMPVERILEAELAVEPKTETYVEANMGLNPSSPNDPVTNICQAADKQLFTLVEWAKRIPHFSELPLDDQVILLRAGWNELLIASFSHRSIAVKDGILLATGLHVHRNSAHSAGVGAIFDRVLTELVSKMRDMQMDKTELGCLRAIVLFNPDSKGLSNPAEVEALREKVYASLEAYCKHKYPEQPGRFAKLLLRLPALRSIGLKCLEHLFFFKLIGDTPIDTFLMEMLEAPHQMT
# Assay: competitive displacement of [3H][…] from VDR in transfected COS-7 lysate
# Type: binding
smiles,measurement,value
"COc1cc(/C=C/C(=O)CC(=O)/C=C/c2ccc(O)c(OC)c2)ccc1O [CM, curcumin]",Ki,2.9 µM
